Laboratory results taken from patent US5387109A (priority 1992, dated 1995).

How the values were obtained:
fructosylamine deglycase [1] = test: Substrate specificity of the enzyme to amadori compounds (colorimetric determination of hydrogen peroxide formed); assay type: biochemical, Candida guilliermondii 7087
Protocol: 0.1 ml of 1 mM di-fructosyl-lysine (as dissolved in 0.05M phosphate buffer pH 7.0) is added to 0.4 ml of 0.05M phosphate buffer (pH 7.0) containing 0.3 mM 4-aminoantipyrine, 0.5 mM N-ethyl-N-(2-hydroxy-3-sulfopropyl)-m-toluidine (TOOS) and 2.0 U/ml peroxidase, and the temperature of the resulting system is equilibrated at 37° C. To this is added 0.06 ml of the enzyme solution having a suitable activity, whereupon the variation of the absorbance of the system is measured with a spectrophotometer (U-2000 Model, manufactured by Hitachi Ltd. ). From the calibration curve as formed from a standard solution containing a determined amount of hydrogen peroxide to indicate the relation between the variation of the absorbance and the amount of hydrogen peroxide, the amount of the hydrogen peroxide as formed in the test system is obtained. The amount of the enzyme of forming one micromole of hydrogen peroxide per one minute is defined to be one activity unit.
0.2 ml of 1 mM di-fructosyl-lysine (as dissolved in 0.05M phosphate buffer pH 7.0) is prepared, and the temperature of it is equilibrated at 37° C. To this is added 0.12 ml of the enzyme solution having a suitable activity and reacted for a suitable period of time at 37° C., and the reaction is stopped in a hot water bath of 100° C. To this is added 0.8 ml of 0.05M phosphate buffer (pH 7.0) containing 0.3 mM 4-aminoantipyrine, 0.5 mM TOOS and 2.0 U/ml peroxidase, whereupon the variation of the absorbance of the system is measured with a spectrophotometer (U-2000 Model, manufactured by Hitachi Ltd. ). From the calibration curve as formed from a standard solution containing a determined amount of hydrogen peroxide to indicate the relation between the variation of the absorbance and the amount of hydrogen peroxide, the amount of the hydrogen peroxide as formed in the test system is obtained. The amount of the enzyme of forming one micromole of hydrogen peroxide per one minute is defined to be one activity unit.
The enzyme catalyzes the reaction of decomposing amadori compounds of α-amino acids, β-amino acids, ε-amino acids, D-amino acids and amines to form a glucosone, hydrogen peroxide and the corresponding amino acid or amine. The enzyme not only decomposes amadori compounds of α-amino acids but also effectively acts on other amadori compounds having fructose as bonded to amino groups as positioned in other positions than the α-position of amino acids (for example, di-D-fructosyl-lysine, ε-D-fructosyl-L-lysine).
The concentration of the substrate as employed for the measurement was 2 mM, except for the use of 1 mM for di-D-fructosyl-lysine.
The data of the activity are relative values to the activity to D-fructosyl-glycine being 100.

fructosylamine deglycase [2] = test: Influence by inhibitors on the enzyme; assay type: biochemical, Candida guilliermondii 7087; conditions: 2 mM inhibitor; 10 mM phosphate buffer pH 6.0; 37° C., 4 minutes
Protocol: The influence of a 2 mM inhibitor on the enzyme was as follows: […]

Molecule	Activity of the Enzyme (relative values to the activity to D-fructosyl-glycine being 100) (fructosylamine deglycase [1]; substrate concentration 2 mM)	Inhibition of the enzyme (fructosylamine deglycase [2])	also measured
O=C(O)CCNCC(=O)[C@@H](O)[C@H](O)[C@H](O)CO [D-fructosyl-β-alanine]	44		
C[C@H](NCC(=O)[C@@H](O)[C@H](O)[C@H](O)CO)C(=O)O [D-fructosyl-L-alanine]	251		
[Cu+2] [Cu^2+]		strongly inhibited	
C[C@@H](NCC(=O)[C@@H](O)[C@H](O)[C@H](O)CO)C(=O)O [D-fructosyl-D-alanine]	26		
O=C(O)[C@H](Cc1ccccc1)NCC(=O)[C@@H](O)[C@H](O)[C@H](O)CO [D-fructosyl-L-phenylalanine]	36		
[Ni+2] [Ni^2+]		strongly inhibited	
O=C(CN1CCC[C@H]1C(=O)O)[C@@H](O)[C@H](O)[C@H](O)CO [D-fructosyl-L-proline]	1348		
Di-D-fructosyl-lysine			Activity of the Enzyme (relative values to the activity to D-fructosyl-glycine being 100) (fructosylamine deglycase [1]; substrate concentration 1 mM): 3500
[Co+2] [Co^2+]		strongly inhibited	
[N-]=[N+]=[N-].[Na+] [NAN3]		not inhibited	
CNCC(=O)[C@@H](O)[C@H](O)[C@H](O)CO [D-fructosyl-methylamine]	105		
N[C@@H](CCCCNCC(=O)[C@@H](O)[C@H](O)[C@H](O)CO)C(=O)O [D-fructosyl-L-lysine]	1386		
[Mg+2] [Mg^2+]		not inhibited	
[Zn+2] [Zn^2+]		strongly inhibited	
CN(CC(=O)O)CC(=O)[C@@H](O)[C@H](O)[C@H](O)CO [D-fructosyl-sarcosine]	63		
O=C(O)CNCC(=O)[C@@H](O)[C@H](O)[C@H](O)CO [D-fructosyl-glycine]	100		
D-fructosyl-polylysine	34		
O=C(O)c1cc[c]([Hg][Cl])cc1 [p-chloromercuribenzoic acid]		strongly inhibited	
